Patent publication US20240182460A1, “ALLOSTERIC CHROMENONE INHIBITORS OF PHOSPHOINOSITIDE 3-KINASE (PI3K) FOR THE TREATMENT OF DISEASE” (PETRA PHARMA CORPORATION, priority 2022, published 2024)

Legend:
[1] = biological target: T1, PI3Kα H1047R (Homo sapiens, UniProt P42336, H1047R); assay: PI3Kα H1047R mutant in vitro cell based assay, MDA-MB-453 cells (AlphaLisa SureFire); details: MDA-MB-453 cell line, 0% FBS, 3 hours treatment
T1 construct: The MDA-MB-453 (ATCC-HTB-131) cell line (PI3Kα H1047R); host or cells: MDA-MB-453
Source text: PI3K-Alpha Kinase (PI3Kα) Activity: Wild-Type PI3Kα, H1047R Mutant PI3Kα, and E545K Mutant PI3Kα In Vitro Cell Based Assays and Determination of IC50 Values for Inhibitors
The MDA-MB-453 (ATCC-HTB-131) cell line (PI3Kα H1047R) and MCF-7 (ATCC-HTB-22) cell line (PI3Kα E545K), MDA-MB-361 (ATCC-HTB-27) cell line (PI3Kα E545K), and SKBR3 (ATCC-HTB-30) cell line (wild type PI3Kα) were obtained from the American Type Culture Collection (Manassas, VA). MDA-MB-453 cells were maintained in Dulbecco's Modified Eagle Media (DMEM, Gibco 12430) supplemented with 10% Fetal Bovine Serum, heat inactivated (FBS HI, Gibco 10082), 1× non-essential amino acids (NEAA, Gibco 11140), 1 mM sodium pyruvate (Gibco 11360) and 1× Anti-Anti (Gibco 15240). MCF-7 cells were maintained in Minimum Essential Media (MEM) (Gibco 11095) supplemented with 10% Fetal Bovine Serum, heat inactivated (FBS HI, Gibco 10082), 1× non-essential amino acids (NEAA, Gibco 11140), 1 mM sodium pyruvate (Gibco 11360), 1× Anti-Anti (Gibco 15240) and 10 μg/mL human insulin (Sigma I 9278). MDA-MB-361 cells were maintained in Dulbecco's Modified Eagle Media (DMEM, Gibco 12430) supplemented with 20% Fetal Bovine Serum, heat inactivated (FBS HI, Gibco 10082), 1× non-essential amino acids (NEAA, Gibco 11140), 1 mM sodium pyruvate (Gibco 11360) and 1× Anti-Anti (Gibco 15240). SKBR3 cells were maintained in McCoy's 5A (Gibco 16600) supplemented with 10% Fetal Bovine Serum, heat inactivated (FBS HI, Gibco 10082), and 1× Anti-Anti (Gibco 15240). Cultures were maintained in a humidified incubator at 37° C. under 5% CO2/95% air.
For compound testing in 0% FBS, MDA-MB-453, MCF-7 and SKBR3 cells were seeded at a density of 1.5×10^4, 1.0×10^4, and 1.0×10^4 cells, respectively, per well in white 384-well plates in 20 μl of Minimum Essential Media (MEM) assay media with 1×NEAA, 1 mM sodium pyruvate, and 1 μg/mL human insulin (Sigma 19278) (Assay Medium); while MDA-MB-361 cells were seeded at a density of 1.5×10^4 per well in white 384-well plates in 20 μl Assay Medium without insulin. After plating, cells were allowed to attach overnight. Compounds dissolved in 10 mM stock solutions in DMSO were serially diluted 1:3 in DMSO to generate a 10-point dilution series and plated using an acoustic liquid handler system (Echo 550 Series Liquid Handler, Labcyte). A 5× intermediate compound dilution plate in MEM with 1×NEAA and 1 mM sodium pyruvate (150 μM starting compound concentration in 1.5% DMSO) was then prepared. Five μl of the intermediate serially diluted compounds were added to the cell plate to final concentrations ranging from […] in 0.3% DMSO. 0.3% DMSO alone was used to establish the maximum (MAX) signal and GDC-0032 at a final concentration of 1 μM was used as a reference compound for the minimum (MIN) signal. After 3 hours treatment, the medium was removed, and the cells were lysed in 10 μL of 1× SureFire Lysis buffer with shaking for 10 minutes at room temperature. The Acceptor Mix (Reaction Buffer 1+Reaction Buffer 2+Activation Buffer+SureFire Ultra Acceptor Beads) was prepared by diluting Activation buffer 25-fold in combined Reaction Buffer 1 and Reaction Buffer 2.
The Acceptor beads were diluted 50-fold in the combined Reaction Buffers. Five μL of Acceptor Mix was added to each well, the plate was sealed and covered with foil and incubated for 1 hour at room temperature. The Donor Mix (dilution buffer+SureFire Ultra Donor Beads) was prepared by diluting Donor Beads 50-fold in dilution buffer. Five μL of the Donor Mix was added to each well and the plate sealed and covered with foil and incubated for 1-2 hours at room temperature in the dark. The plates were read on a Neo2 plate reader instrument from Biotek using standard AlphaLisa settings.
Compounds were tested in duplicate and the % inhibition at each compound concentration was used to generate two dose response curves. One IC50 was generated using average % inhibition at each compound concentration. […]

[2] = Metabolic stability and intrinsic clearance in human liver microsomes (MICS); format: in vitro ADME; details: human, microsomes, pH 7.4
Outline: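 Parent depletion by LC-MS/MS, run in duplicate, gave in vitro t1/2 from the slope of ln(% remaining) versus time, converted to CLint (μL/min/mg protein). Incubations: 1 μM compound, microsomes at 0.5 mg/mL, pH 7.4 phosphate, 37° C, ±1 mM NADPH, timepoints 0.5, 5, 15, 30, 60 min.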

[3] = biological target: T2, PI3Kα E545K (Homo sapiens, UniProt P42336, E545K); assay: PI3Kα E545K mutant in vitro cell based assay, MCF-7 cells; details: MCF-7 cell line, 0% FBS, 3 hours treatment
Outline: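 MCF-7 cells (PI3Kα E545K) in serum-free MEM with 1 μg/mL insulin were treated 3 h with 10-point 1:3 dilutions in 0.3% DMSO. Lysates were read by SureFire AlphaLisa. IC50 was fitted by 4-parameter logistic to % inhibition relative to DMSO (max) and 1 μM GDC-0032 (min), duplicates averaged.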

[4] = biological target: T2, PI3Kα E545K; assay: PI3Kα E545K mutant in vitro cell based assay, MDA-MB-361 cells; parameters: MDA-MB-361 (ATCC-HTB-27) cell line (PI3Kα E545K); host or cells: MDA-MB-361; details: MDA-MB-361 cell line, 0% FBS, no insulin, 3 hours treatment
Outline: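 Compound exposure lasted 3 hours, in duplicate 10-point 1:3 dilutions at 0.3% DMSO final, on overnight-attached MDA-MB-361 cells carrying PI3Kα E545K in insulin-free, 0% FBS MEM. Lysates read by SureFire AlphaLISA. Relative IC50 from 4-parameter logistic fit versus DMSO and 1 μM GDC-0032 controls.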

T1 sequence (P42336 whole entry H1047R): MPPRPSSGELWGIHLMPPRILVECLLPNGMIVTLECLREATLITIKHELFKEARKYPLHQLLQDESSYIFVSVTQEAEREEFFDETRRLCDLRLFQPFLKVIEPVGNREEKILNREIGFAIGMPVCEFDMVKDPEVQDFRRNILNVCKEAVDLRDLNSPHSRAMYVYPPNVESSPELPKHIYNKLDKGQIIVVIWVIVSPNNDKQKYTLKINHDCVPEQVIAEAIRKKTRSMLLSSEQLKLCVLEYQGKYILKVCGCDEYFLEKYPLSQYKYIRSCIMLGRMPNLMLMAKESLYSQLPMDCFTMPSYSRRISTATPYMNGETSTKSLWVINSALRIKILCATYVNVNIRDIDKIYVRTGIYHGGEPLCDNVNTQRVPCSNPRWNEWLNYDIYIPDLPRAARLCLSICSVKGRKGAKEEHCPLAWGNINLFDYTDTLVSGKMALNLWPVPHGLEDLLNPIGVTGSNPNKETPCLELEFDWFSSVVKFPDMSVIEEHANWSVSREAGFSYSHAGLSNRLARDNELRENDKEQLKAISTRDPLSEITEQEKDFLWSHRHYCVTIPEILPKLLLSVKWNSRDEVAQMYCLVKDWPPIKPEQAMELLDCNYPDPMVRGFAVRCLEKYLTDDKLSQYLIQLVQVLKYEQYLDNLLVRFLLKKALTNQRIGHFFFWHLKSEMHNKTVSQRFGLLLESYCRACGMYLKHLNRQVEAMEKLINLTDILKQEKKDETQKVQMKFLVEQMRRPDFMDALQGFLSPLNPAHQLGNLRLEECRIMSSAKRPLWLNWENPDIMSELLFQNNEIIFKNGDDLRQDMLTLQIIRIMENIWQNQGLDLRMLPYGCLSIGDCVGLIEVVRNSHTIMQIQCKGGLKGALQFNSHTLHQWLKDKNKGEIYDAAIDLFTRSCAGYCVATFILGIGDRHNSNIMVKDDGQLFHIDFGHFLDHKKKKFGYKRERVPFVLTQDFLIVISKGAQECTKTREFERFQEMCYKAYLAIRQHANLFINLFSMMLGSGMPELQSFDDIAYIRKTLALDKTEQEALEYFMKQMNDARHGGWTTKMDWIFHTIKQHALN
T1 sequence (P27986 whole entry partner): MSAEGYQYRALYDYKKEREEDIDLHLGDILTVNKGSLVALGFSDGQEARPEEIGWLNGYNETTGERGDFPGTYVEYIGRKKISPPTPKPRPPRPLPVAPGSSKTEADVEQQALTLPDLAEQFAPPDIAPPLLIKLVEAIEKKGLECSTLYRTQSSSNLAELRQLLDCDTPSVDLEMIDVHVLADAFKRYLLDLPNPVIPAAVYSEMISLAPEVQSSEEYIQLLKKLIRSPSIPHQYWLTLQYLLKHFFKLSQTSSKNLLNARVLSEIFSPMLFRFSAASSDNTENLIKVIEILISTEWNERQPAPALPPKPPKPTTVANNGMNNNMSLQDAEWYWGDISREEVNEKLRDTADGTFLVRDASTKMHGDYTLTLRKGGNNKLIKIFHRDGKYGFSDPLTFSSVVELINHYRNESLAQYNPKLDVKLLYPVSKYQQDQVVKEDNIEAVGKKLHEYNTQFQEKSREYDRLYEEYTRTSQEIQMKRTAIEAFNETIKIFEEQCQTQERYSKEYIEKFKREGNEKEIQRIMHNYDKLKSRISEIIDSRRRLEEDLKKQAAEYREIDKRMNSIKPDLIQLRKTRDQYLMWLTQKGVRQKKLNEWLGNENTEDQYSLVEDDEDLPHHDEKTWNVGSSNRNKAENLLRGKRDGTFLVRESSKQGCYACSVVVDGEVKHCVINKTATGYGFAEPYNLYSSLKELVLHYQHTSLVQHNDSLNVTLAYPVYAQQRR
T2 sequence (P42336 whole entry E545K): as the sequence (P42336 whole entry H1047R) above, with E545K, R1047H counted along it
T2 sequence (P27986 whole entry partner): as the sequence (P27986 whole entry partner) above

Structure (SMILES) | IC50 [1] | microsomal CLint at 1 μM [2] | IC50 [3] | IC50 [4]
Cc1cc([C@@H](C)Oc2ccc(Cl)nc2S(N)(=O)=O)c2oc(-c3cccnc3)c(C)c(=O)c2c1 [Example 42A, 6-Chloro-3-[(1R)-1-[3,6-dimethyl-4-oxo-2-(3-pyridyl)chromen-8-yl]ethoxy]pyridine-2-sulfonamide] | < 100 nM | < 50 µL/min/mg | – | –
Cc1cc([C@@H](C)Oc2ccc(Cl)nc2C(N)=O)c2oc(-c3cc(C)c4nn(C)cc4c3)c(C)c(=O)c2c1 [Example 45C, 6-Chloro-3-[(1R)-1-[2-(2,7-dimethylindazol-5-yl)-3,6-dimethyl-4-oxo-chromen-8-yl]ethoxy]pyridine-2-carboxamide] | < 100 nM | – | < 500 nM | –
Cc1cc([C@@H](C)Oc2ccc(Cl)nc2C(N)=O)c2oc(-c3cnc(C)s3)c(C)c(=O)c2c1 [Example 63C, 6-Chloro-3-[(1R)-1-[3,6-dimethyl-2-(2-methylthiazol-5-yl)-4-oxo-chromen-8-yl]ethoxy]pyridine-2-carboxamide] | < 100 nM | – | – | < 500 nM
CONC(=O)c1nc(Cl)ccc1O[C@H](C)c1cc(C)cc2c(=O)c(C)c(-c3ccc4nc(C)sc4c3)oc12 [Example 69C, 6-Chloro-3-[(1R)-1-[3,6-dimethyl-2-(2-methyl-1,3-benzothiazol-6-yl)-4-oxo-chromen-8-yl]ethoxy]-N-methoxy-pyridine-2-carboxamide] | < 100 nM | – | – | < 500 nM
Cc1cc([C@@H](C)Oc2ccc(Cl)nc2C(N)=O)c2oc(-c3cc(F)c4nc(C)cn4c3)c(C)c(=O)c2c1 [Example 38C] | < 100 nM | – | – | < 500 nM
Cc1cc([C@@H](C)Oc2ccc(Cl)nc2S(N)(=O)=O)c2oc(-c3cnn(CCO)c3)c(C)c(=O)c2c1 [Example 61A, 6-Chloro-3-[(1R)-1-[2-[1-(2-hydroxyethyl)pyrazol-4-yl]-3,6-dimethyl-4-oxo-chromen-8-yl]ethoxy]pyridine-2-sulfonamide] | < 100 nM | – | – | < 500 nM
Cc1cc(C(C)Oc2ccc(Cl)nc2C)c2oc(-c3cccnc3)c(C)c(=O)c2c1 (single isomer, unassigned; isomer 2) [Example 10, 8-[1-[(6-Chloro-2-methyl-3-pyridyl)oxy]ethyl]-3,6-dimethyl-2-(3-pyridyl)chromen-4-one, Isomer 2] | < 100 nM | – | < 500 nM | –
Cc1cc([C@@H](C)Oc2ccc(Cl)nc2C(N)=O)c2oc(-c3ccc4nc(C)cn4c3)c(C)c(=O)c2c1 [Example 57A, 6-Chloro-3-[(1R)-1-[3,6-dimethyl-2-(2-methylimidazo[1,2-a]pyridin-6-yl)-4-oxo-chromen-8-yl]ethoxy]pyridine-2-carboxamide] | < 100 nM | – | – | < 500 nM
Cc1cc([C@@H](C)Oc2ccc(Cl)nc2C(N)=O)c2oc(-c3cnn4c3CCC4)c(C)c(=O)c2c1 [Example 123A, 6-Chloro-3-[(1R)-1-[2-(5,6-dihydro-4H-pyrrolo[2,1-e]pyrazol-3-yl)-3,6-dimethyl-4-oxo-chromen-8-yl]ethoxy]pyridine-2-carboxamide] | < 100 nM | – | – | < 500 nM
Cc1cc([C@@H](C)Oc2ccc(Cl)nc2C)c2oc(-c3ccccc3)c(C)c(=O)c2c1 [Example 1, 8-[(1R)-1-[(6-Chloro-2-methyl-3-pyridyl)oxy]ethyl]-3,6-dimethyl-2-phenyl-chromen-4-one] | < 100 nM | – | < 500 nM | –
Cc1cc([C@@H](C)Oc2ccc(Cl)nc2S(N)(=O)=O)c2oc(-c3cnn(CCS(C)(=O)=O)c3)c(C)c(=O)c2c1 [Example 90C, 6-Chloro-3-[(1R)-1-[3,6-dimethyl-2-[1-(2-methylsulfonylethyl)pyrazol-4-yl]-4-oxo-chromen-8-yl]ethoxy]pyridine-2-sulfonamide] | < 100 nM | – | – | < 500 nM
Cc1cc([C@@H](C)Oc2ccc(Cl)nc2C(N)=O)c2oc(-c3ccc4ncsc4c3)c(C)c(=O)c2c1 [Example 12B, 3-[(1R)-1-[2-(1,3-Benzothiazol-6-yl)-3,6-dimethyl-4-oxo-chromen-8-yl]ethoxy]-6-chloro-pyridine-2-carboxamide] | < 100 nM | – | – | < 500 nM
Cc1cc([C@@H](C)Oc2cccnc2S(N)(=O)=O)c2oc(-c3ccccc3)c(C)c(=O)c2c1 [Example 94C, 3-[(1R)-1-(3,6-Dimethyl-4-oxo-2-phenyl-chromen-8-yl)ethoxy]pyridine-2-sulfonamide] | < 100 nM | – | < 500 nM | –
Cc1cc([C@@H](C)Oc2ccc(Cl)nc2-c2noc(=O)[nH]2)c2oc(-c3cnc4c(c3)OCO4)c(C)c(=O)c2c1 [Example 39A, 3-[6-Chloro-3-[(1R)-1-[2-([1,3]dioxolo[4,5-b]pyridin-6-yl)-3,6-dimethyl-4-oxo-chromen-8-yl]ethoxy]-2-pyridyl]-4H-1,2,4-oxadiazol-5-one] | < 100 nM | < 50 µL/min/mg | – | –
Cc1cc([C@@H](C)Oc2ccc(Cl)nc2C(N)=O)c2oc(-c3cnn4c3OCC4(C)C)c(C)c(=O)c2c1 [Example 65C, 6-Chloro-3-[(1R)-1-[2-(3,3-dimethyl-2H-pyrazolo[5,1-b]oxazol-7-yl)-3,6-dimethyl-4-oxo-chromen-8-yl]ethoxy]pyridine-2-carboxamide] | < 100 nM | – | – | < 500 nM
Cc1cc([C@@H](C)Oc2ccc(Cl)nc2C(N)=O)c2oc(-c3ccc4nn(CF)cc4c3)c(C)c(=O)c2c1 [Example 66C, 6-Chloro-3-[(1R)-1-[2-[2-(fluoromethyl)indazol-5-yl]-3,6-dimethyl-4-oxo-chromen-8-yl]ethoxy]pyridine-2-carboxamide] | < 100 nM | – | – | < 500 nM
Cc1cc([C@@H](C)Oc2ccc(Cl)nc2C(N)=O)c2oc(-c3cnn4c3OCC4)c(C)c(=O)c2c1 [Example 36C, 6-Chloro-3-[(1R)-1-[2-(2,3-dihydropyrazolo[5,1-b]oxazol-7-yl)-3,6-dimethyl-4-oxo-chromen-8-yl]ethoxy]pyridine-2-carboxamide] | < 100 nM | – | – | < 500 nM
